According to patent US12139492B2 (Endotarget Inc., priority 2021, dated 2024):
Like-named read-outs stand apart in the source and are kept apart here.

What was measured:
[1] = system: Mino cells; assay: Antiproliferative effect, MTS cell viability assay, Mino cells; assay type: cell-based; conditions: Homo sapiens, Mino mantle cell lymphoma cells, read-out: IC50 (anti-proliferation) Mino cells
Procedure, shortened: (§1)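 Steps: seed B-cell lymphoma line; add compound at 0, 0.001, 0.01, 0.1, 1 or 10 μM; incubate 72 h; add MTS and read reduced tetrazolium (formazan) absorbance at 490 nm.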

[2] = system: JeKo-1 cells; assay: Antiproliferative effect, MTS cell viability assay, JeKo-1 cells; assay type: cell-based; conditions: Homo sapiens; JeKo-1 mantle cell lymphoma cells; read-out: IC50 (anti-proliferation) JeKO-1 cells
Procedure, shortened: as §1

[3] = target: BTK (Homo sapiens, UniProt Q06187); assay: Degradation of BTK protein in Namalwa cells (Western blot; DC50, Dmax); conditions: for DC50: cell line not given
BTK, sequence (Q06187 whole entry): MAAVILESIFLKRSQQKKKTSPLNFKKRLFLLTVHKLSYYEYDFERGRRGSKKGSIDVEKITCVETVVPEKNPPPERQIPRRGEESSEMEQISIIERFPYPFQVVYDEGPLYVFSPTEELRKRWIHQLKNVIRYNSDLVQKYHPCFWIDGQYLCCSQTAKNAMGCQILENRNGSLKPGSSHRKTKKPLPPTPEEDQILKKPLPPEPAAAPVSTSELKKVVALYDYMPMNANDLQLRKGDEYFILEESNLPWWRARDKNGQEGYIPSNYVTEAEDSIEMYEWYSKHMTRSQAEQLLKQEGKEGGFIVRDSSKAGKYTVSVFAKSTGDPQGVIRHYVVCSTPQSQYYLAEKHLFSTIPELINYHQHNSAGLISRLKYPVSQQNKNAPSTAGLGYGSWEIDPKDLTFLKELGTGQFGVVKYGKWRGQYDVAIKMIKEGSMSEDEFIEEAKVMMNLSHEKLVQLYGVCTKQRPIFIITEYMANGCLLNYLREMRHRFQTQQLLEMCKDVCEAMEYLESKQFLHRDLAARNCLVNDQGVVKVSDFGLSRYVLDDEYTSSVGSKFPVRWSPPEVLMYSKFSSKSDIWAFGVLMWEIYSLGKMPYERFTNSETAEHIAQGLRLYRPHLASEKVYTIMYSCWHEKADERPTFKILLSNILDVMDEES

[4] = read-out: DC50 (BTK degradation), concentration giving 50% reduction of BTK expression level
[5] = read-out: Dmax (BTK degradation)

Structure (SMILES) | Dmax [3] | DC50 ([3]; BTK degradation) | DC50 [3, 4] | Dmax [3, 5] | IC50 ([1]; MINO) | IC50 [2] | IC50 [1]
Nc1ncnc2c1c(-c1ccc(Oc3ccccc3)cc1)nn2C1CCN(CC2CCN(CC3CCN(c4ccc(N5CCC(=O)NC5=O)cc4)CC3)CC2)CC1 [Compound 552] |  |  | < 10 nM | > 90% |  | < 1000 nM | < 1000 nM
Nc1ncnc2c1c(-c1ccc(Oc3ccccc3)cc1)nn2C1CCN(C[C@@H]2CCN(CC3CCN(c4ccc5c(c4)C(=O)N(C4CCC(=O)NC4=O)C5=O)CC3)C2)CC1 (stereo partly drawn) [Compound 445b, 5-(4-(((S)-3-((4-(4-amino-3-(4-phenoxyphenyl)-1H-pyrazolo[3,4-d]pyrimidin-1-yl)piperidin-1-yl)methyl)pyrrolidin-1-yl)methyl)piperidin-1-yl)-2-(2,6-dioxopiperidin-3-yl)isoindoline-1,3-dione] |  |  | 10 to 50 nM | > 90% | 1000 to 10000 nM | 1000 to 10000 nM | 
Nc1ncnc2c1c(-c1ccc(Oc3ccccc3)cc1)nn2C1CCN(CC2CCN(CC3CCN(c4ccc(NC5CCC(=O)NC5=O)cc4)CC3)CC2)CC1 (centres unmarked) [Compound 557, 3-((4-(4-((4-((4-(4-amino-3-(4-phenoxyphenyl)-1H-pyrazolo[3,4-d]pyrimidin-1-yl)piperidin-1-yl)methyl)piperidin-1-yl)methyl)piperidin-1-yl)phenyl)amino)piperidine-2,6-dione] |  |  | < 10 nM | > 90% | < 1000 nM | < 1000 nM | 
Nc1ncnc2c1c(-c1ccc(Oc3ccccc3)cc1)nn2C1CCN(C2CCN(CCN3CCC(c4ccc(N5CCC(=O)NC5=O)cc4)CC3)CC2)CC1 [Compound 569, 1-(4-(1-(2-(4-(4-amino-3-(4-phenoxyphenyl)-1H-pyrazolo[3,4-d]pyrimidin-1-yl)-[1,4′-bipiperidin]-1′-yl)ethyl)piperidin-4-yl)phenyl)dihydropyrimidine-2,4(1H,3H)-dione] |  |  | 10 to 50 nM | > 90% | 1000 to 10000 nM | 1000 to 10000 nM | 
NC1=NC=NC2C1C(c1ccc(Oc3ccccc3)cc1)=NN2C1CCN(C(=O)N2CC(C3CN(c4ccc5c(c4)CN([C@H]4CCC(=O)NC4=O)C5=O)C3)C2)CC1 (stereo partly drawn) [Compound 495, (3S)-3-(5-(1′-(4-(4-amino-3-(4-phenoxyphenyl)-3a,7a-dihydro-1H-pyrazolo[3,4-d]pyrimidin-1-yl)piperidine-1-carbonyl)-[3,3′-biazetidin]-1-yl)-1-oxoisoindolin-2-yl)piperidine-2,6-dione] |  |  | < 10 nM | > 90% | < 1000 nM | < 1000 nM | 
Nc1ncnc2c1c(-c1ccc(Oc3ccccc3)cc1)nn2C1CCN(CCN2CCC(CN3CCC(c4ccc5c(c4)oc(=O)n5C4CCC(=O)NC4=O)CC3)C2)CC1 (centres unmarked) [Compound 542, 3-(6-(1-((1-(2-(4-(4-amino-3-(4-phenoxyphenyl)-1H-pyrazolo[3,4-d]pyrimidin-1-yl)piperidin-1-yl)ethyl)pyrrolidin-3-yl)methyl)piperidin-4-yl)-2-oxobenzo[d]oxazol-3(2H)-yl)piperidine-2,6-dione] |  |  | 10 to 50 nM | > 75% | 1000 to 10000 nM | 1000 to 10000 nM | 
Nc1ncnc2c1c(-c1ccc(Oc3ccccc3)cc1)nn2C1CCN(CCCN2CCC(CN3CCC(c4ccc(N5CCC(=O)NC5=O)cc4)CC3)C2)CC1 (centres unmarked) [Compound 550, 1-(4-(1-((1-(3-(4-(4-amino-3-(4-phenoxyphenyl)-1H-pyrazolo[3,4-d]pyrimidin-1-yl)piperidin-1-yl)propyl)pyrrolidin-3-yl)methyl)piperidin-4-yl)phenyl)dihydropyrimidine-2,4(1H,3H)-dione] |  |  | 10 to 50 nM | > 90% | < 1000 nM | < 1000 nM | 
NC(=O)c1c(-c2ccc(Oc3ccccc3)cc2)nn2c1NCC[C@H]2C1CCN(C2CCN(C(=O)N3CCC(N4CCC(c5ccc6c(c5)CN(C5CCC(=O)NC5=O)C6=O)CC4)CC3)CC2)CC1 (stereo partly drawn) [Compound 388, (7S)-7-(1′-(4-(2-(2,6-dioxopiperidin-3-yl)-1-oxoisoindolin-5-yl)-[1,4′-bipiperidine]-1′-carbonyl)-[1,4′-bipiperidin]-4-yl)-2-(4-phenoxyphenyl)-4,5,6,7-tetrahydropyrazolo[1,5-a]pyrimidine-3-carboxamide] | > 90% | 10 to 50 nM |  |  | < 1000 nM | 1000 to 10000 nM | 
Nc1ncnc2c1c(-c1ccc(Oc3ccccc3)cc1)nn2C1CCN(CCCN2CCC(CN3CCC(c4ccc5c(c4)oc(=O)n5C4CCC(=O)NC4=O)CC3)CC2)CC1 (centres unmarked) [Compound 546, 3-(6-(1-((1-(3-(4-(4-amino-3-(4-phenoxyphenyl)-1H-pyrazolo[3,4-d]pyrimidin-1-yl)piperidin-1-yl)propyl)piperidin-4-yl)methyl)piperidin-4-yl)-2-oxobenzo[d]oxazol-3(2H)-yl)piperidine-2,6-dione] |  |  | < 10 nM | > 90% | 1000 to 10000 nM | < 1000 nM | 
Nc1ncnc2c1c(-c1ccc(Oc3ccccc3)cc1)nn2C1CCN(C2CCN(C(=O)N3CCC(CCCN4CCN(c5ccc6c(c5)CN(C5CCC(=O)NC5=O)C6=O)CC4)CC3)CC2)CC1 (centres unmarked) [Compound 264, 3-(5-(4-(3-(1-(4-(4-amino-3-(4-phenoxyphenyl)-1H-pyrazolo[3,4-d]pyrimidin-1-yl)-[1,4′-bipiperidine]-1′-carbonyl)piperidin-4-yl)propyl)piperazin-1-yl)-1-oxoisoindolin-2-yl)piperidine-2,6-dione] | > 75% | 10 to 50 nM |  |  | 1000 to 10000 nM | > 10000 nM | 

Further lines, with some results ahead:

Dmax [3] | DC50 ([3]; BTK degradation) | DC50 [3, 4] | Dmax [3, 5] | Structure (SMILES) | IC50 ([1]; MINO) | IC50 [2] | IC50 [1]
> 90% | < 10 nM |  |  | NC(=O)c1c(-c2ccc(Oc3ccccc3)cc2)nn2c1NCCC2C1CCN(CC2CCN(C(=O)N3CCC(CN4CCN(c5ccc6c(c5)C(=O)N(C5CCC(=O)NC5=O)C6=O)CC4)CC3)CC2)CC1 (centres unmarked) [Compound 369, 7-(1-((1-(4-((4-(2-(2,6-dioxopiperidin-3-yl)-1,3-dioxoisoindolin-5-yl)piperazin-1-yl)methyl)piperidine-1-carbonyl)piperidin-4-yl)methyl)piperidin-4-yl)-2-(4-phenoxyphenyl)-4,5,6,7-tetrahydropyrazolo[1,5-a]pyrimidine-3-carboxamide] | < 1000 nM | 1000 to 10000 nM | 
> 90% | < 10 nM |  |  | NC(=O)c1c(-c2ccc(Oc3ccccc3)cc2)nn2c1NCCC2C1CCN(C2CCN(C(=O)N3CCN(CC4CCN(c5ccc6c(c5)CN(C5CCC(=O)NC5=O)C6=O)CC4)CC3)CC2)CC1 (centres unmarked) [Compound 352, 7-(1′-(4-((1-(2-(2,6-dioxopiperidin-3-yl)-1-oxoisoindolin-5-yl)piperidin-4-yl)methyl)piperazine-1-carbonyl)-[1,4′-bipiperidin]-4-yl)-2-(4-phenoxyphenyl)-4,5,6,7-tetrahydropyrazolo[1,5-a]pyrimidine-3-carboxamide] | < 1000 nM | 1000 to 10000 nM | 
> 90% | 10 to 50 nM |  |  | NC(=O)c1c(-c2ccc(Oc3ccccc3)cc2)nn2c1NCCC2C1CCN(C2CCN(C(=O)N3CCC(CC4CCN(c5ccc6c(c5)C(=O)N(C5CCC(=O)NC5=O)C6=O)CC4)CC3)CC2)CC1 (centres unmarked) [Compound 353, 7-(1′-(4-((1-(2-(2,6-dioxopiperidin-3-yl)-1,3-dioxoisoindolin-5-yl)piperidin-4-yl)methyl)piperidine-1-carbonyl)-[1,4′-bipiperidin]-4-yl)-2-(4-phenoxyphenyl)-4,5,6,7-tetrahydropyrazolo[1,5-a]pyrimidine-3-carboxamide] | < 1000 nM | 1000 to 10000 nM | 
> 90% | 10 to 50 nM |  |  | NC(=O)c1c(-c2ccc(Oc3ccccc3)cc2)nn2c1NCCC2C1CCN(C2CCN(CC3CCN(c4ccc5c(c4)C(=O)N(C4CCC(=O)NC4=O)C5=O)CC3)CC2)CC1 (centres unmarked) [Compound 305, 7-(1′-((1-(2-(2,6-dioxopiperidin-3-yl)-1,3-dioxoisoindolin-5-yl)piperidin-4-yl)methyl)-[1,4′-bipiperidin]-4-yl)-2-(4-phenoxyphenyl)-4,5,6,7-tetrahydropyrazolo[1,5-a]pyrimidine-3-carboxamide] | 1000 to 10000 nM | 1000 to 10000 nM | 
> 90% | < 10 nM |  |  | NC(=O)c1c(-c2ccc(Oc3ccccc3)cc2)nn2c1NCC[C@H]2C1CCN(C2CCN(C(=O)N3CCC(N4CCN(c5ccc6c(c5)CN(C5CCC(=O)NC5=O)C6=O)CC4)CC3)CC2)CC1 (stereo partly drawn) [Compound 382, (7S)-7-(1′-(4-(4-(2-(2,6-dioxopiperidin-3-yl)-1-oxoisoindolin-5-yl)piperazin-1-yl)piperidine-1-carbonyl)-[1,4′-bipiperidin]-4-yl)-2-(4-phenoxyphenyl)-4,5,6,7-tetrahydropyrazolo[1,5-a]pyrimidine-3-carboxamide] | < 1000 nM | < 1000 nM | 
> 50% | > 50 nM |  |  | NC(=O)c1c(-c2ccc(Oc3ccccc3)cc2)nn2c1NCCC2C1CCN(C2CCN(C(=O)N3CCN(Cc4ccc5c(c4)C(=O)N(C4CCC(=O)NC4=O)C5=O)CC3)CC2)CC1 (centres unmarked) [Compound 339, 7-(1′-(4-((2-(2,6-dioxopiperidin-3-yl)-1,3-dioxoisoindolin-5-yl)methyl)piperazine-1-carbonyl)-[1,4′-bipiperidin]-4-yl)-2-(4-phenoxyphenyl)-4,5,6,7-tetrahydropyrazolo[1,5-a]pyrimidine-3-carboxamide] | > 10000 nM | > 10000 nM | 
 |  | 10 to 50 nM | > 75% | NC(=O)c1c(-c2ccc(Oc3ccccc3)cc2)nn2c1NCC[C@H]2C1CCN(CC2CCN(C(=O)N3CCC(CN4CCC(c5ccc6c(c5)C(=O)N(C5CCC(=O)NC5=O)C6=O)CC4)CC3)CC2)CC1 (stereo partly drawn) [Compound 415, (7S)-7-(1-((1-(4-((4-(2-(2,6-dioxopiperidin-3-yl)-1,3-dioxoisoindolin-5-yl)piperidin-1-yl)methyl)piperidine-1-carbonyl)piperidin-4-yl)methyl)piperidin-4-yl)-2-(4-phenoxyphenyl)-4,5,6,7-tetrahydropyrazolo[1,5-a]pyrimidine-3-carboxamide] | < 1000 nM | 1000 to 10000 nM | 
